Patent US20240299277A1, “COMPOSITION FOR IMPROVING SKIN” (LG HOUSEHOLD & HEALTH CARE LTD., priority 2020, published 2024)

Tests used:
[1] = Free radical scavenging ability by DPPH method; assay type: biochemical; details: each component 0.5 mg/mL in methanol; DPPH 0.12 mM; 1 hour; absorbance 517 nm; average of three
Method: In Comparative Examples 1 to 4 and Examples 1 to 6, a solution was prepared using methanol as a solvent so that the concentration of each component in the solution was 0.5 mg/mL. In order to confirm the antioxidant effect of Comparative Examples 1 to 4 and Examples 1 to 6, free radical scavenging ability was measured using a 1,1-diphenyl-2-picrylhydrazyl (DPPH) method. […] DPPH was used after being dissolved in methanol at a concentration of 0.12 mM.
Comparative Examples 1 to 4, Examples 1 to 6, and Trolox solutions by concentration (0.0125, 0.025, 0.05, 0.1, 0.2, 0.4, 0.8 mg/mL) were each put into a 24-well plate in an amount of 100 μL, and the DPPH solution was added in an amount of 1,900 μL. After blocking the light at room temperature and leaving it for 1 hour, the absorbance at 517 nm was measured using a microplate reader (BioTek EPOCH). A calibration curve according to the concentration was created using the absorbance values of the Trolox solution at 7 concentrations. In this experiment, Trolox is one indicator for measuring the antioxidative capacity of a sample, and the antioxidative capacity of each comparative example and example is a size compared to Trolox. The degree of antioxidant effect shown by 1 mL of the example solution by substituting the absorbance of the example solution into the calibration curve is expressed in Trolox μmol equivalents/mL and summarized in Table 2 below. The experiment was performed three times, and then an average value was calculated and shown.

[2] = tested on: MNT-1 melanoma cells; experiment: Inhibition of melanin production in MNT-1 melanoma cells; assay type: cell-based; details: each component 3 μg/mL (3 ppm); 72 hours; relative to methanol negative control; average of three
Method: To culture MNT-1 melanoma cells, a mixture of Dulbecco's Modified Eagle's Medium (DMEM) and 10% fetal bovine serum (FBS) was used as a basal medium. MNT-1 melanoma cells were dispensed in a 6-well plate at a concentration of 1-2×10^5 cells/mL and cultured for 24 hours. Samples were treated so that the final concentration of each component of Comparative Examples 1 to 4 and Examples 1 to 6 was 3 μg/mL (3 ppm), and then cultured for 72 hours. As a positive control, arbutin was treated to be 200 μg/mL (200 ppm) (positive control in Table 3). Thereafter, the cells were treated with trypsin, detached from the culture vessel, centrifuged at 13,000 rpm for 1 minute, and then the supernatant was removed. Cells were lysed by adding 300 μL of a 0.5% Triton X-100 solution to the remaining cells. This was again centrifuged at 13,000 rpm for 3 minutes to recover the pellet and supernatant separately. Melanin in the pellet was dissolved by adding 100 μL of a 0.5 N sodium hydroxide solution and incubating for 12 hours, and absorbance at 450 nm was measured using a spectrophotometer to measure the total amount of melanin produced.
The total amount of inhibited melanin production was calculated as a melanin production inhibition rate (%) relative to a group (negative control group) treated with methanol (Equation 1 below), and the experiment was performed three times, and then an average value was calculated and shown in Table 3.

[3] = tested on: human-derived fibroblasts; experiment: Collagen synthesis promotion in fibroblasts (Procollagen 1α1 ELISA); assay type: cell-based; details: each component 3 μg/mL (3 ppm); 24 hours; medium without FBS; relative to methanol negative control; average of three
Method: A mixture of DMEM and 10% FBS was used as a basal medium for culturing human-derived fibroblasts. Skin fibroblasts were dispensed in a 48-well plate at a concentration of 2-5×10^4 cells/mL and cultured for 24 hours. The basal medium with growth factors was removed, and a medium (a medium to which FBS was not added) having a final concentration of 3 μg/mL (3 ppm) of each component of Comparative Examples 1 to 4 and Examples 1 to 6 was added and cultured for 24 hours. A positive control for inducing collagen synthesis was treated with TGF-β to be 5 ng/mL (5 ppb) (positive control in Table 4). A cell culture solution was taken and synthesized collagen was measured using a Human Procollagen 1α1 Duoset ELISA Kit (R&D Systems) and a spectrophotometer.
A calibration curve was created by measuring the separated and purified collagen at concentrations of 0.25, 0.5, 1, 2, 4, and 8 ng/mL, and based on this, the collagen (Type I collagen) production amounts of Comparative Examples 1 to 4 and Examples 1 to 6, a negative control group, and a positive control group were calculated. The collagen production amount was calculated using a collagen production rate (%) relative to the group treated with methanol (negative control group) (Equation 2 below), and the experiment was performed three times, and then an average value was calculated and shown in Table 4.

[4] = tested on: Human skin keratinocytes; experiment: Hyaluronic acid synthesis promotion in keratinocytes (Hyaluronan ELISA); assay type: cell-based; details: each component 3 μg/mL (3 ppm); 24 hours; medium without EGF and BPE; relative to methanol negative control; average of three
Method: Human skin keratinocytes (primary cultured human skin keratinocytes) were purchased from Thermo Fisher Scientific and cultured using Keratinocyte-SFM supplemented with epidermal growth factor (EGF), which is a growth factor, and bovine pituitary extract (BPE). The keratinocytes were dispensed in a 60-mm culture plate at a concentration of 2-5×10^5 cells/mL and cultured for 24 hours. The basal medium with growth factors was removed, and a medium (a medium to which EGF and BPE were not added) having a final concentration of 3 μg/mL (3 ppm) of each component of Comparative Examples 1 to 4 and Examples 1 to 6 was added and cultured for 24 hours. A positive control for inducing hyaluronic acid synthesis was treated with all-trans-retinoic acid to be 100 nM (positive control in Table 5). A cell culture solution was taken and synthesized hyaluronic acid was measured using a Hyaluronan DuoSet ELISA Kit (R&D Systems) and a spectrophotometer.
A calibration curve was created by measuring standard hyaluronic acid at concentrations of 1.1, 3.3, 10, 30, and 90 ng/mL, and based on this, the hyaluronic acid production amounts of Comparative Examples 1 to 4 and Examples 1 to 6, a negative control group, and […] were calculated. The hyaluronic acid production amount was calculated using a hyaluronic acid production rate (%) relative to the group treated with methanol (negative control group) (Equation 2 below), and the experiment was performed three times, and then an average value was calculated and shown in Table 5.

Row | SMILES | Trolox μmol equivalents/mL [1] | Melanin production Inhibition rate (%) [2] [%] | Collagen Production rate (%) [3] [%] | Hyaluronic acid Production rate (%) [4] [%]
1 | C[C@@H]1CC[C@H]2C(C)(C)[C@H]3C[C@@]12CC[C@@]3(C)O [compound 1, Cedrol] | 0.104 Trolox μmol equivalents/mL | 17.5 | 27.9 | 5.6
2 | COc1cc(/C=C/C(=O)O)ccc1O [compound 2, Ferulic acid] | 0.981 Trolox μmol equivalents/mL | 16.3 | 8.8 | 32.2
3 | CC[C@H](CC[C@@H](C)[C@H]1CC[C@H]2[C@@H]3CC=C4C[C@@H](O)CC[C@]4(C)[C@H]3CC[C@]12C)C(C)C [compound 3, Beta-sitosterol] | 0.051 Trolox μmol equivalents/mL | 1.7 | 2.4 | −3.0
4 | CCCCC/C=C\C/C=C\CCCCCCCC(=O)O [compound 4, Linoleic acid] | 0.023 Trolox μmol equivalents/mL | 6.7 | −2.5 | 4.1
